Laboratory results reported in patent US20210046071A1, “TETRACYCLIC COMPOUNDS AND THEIR SALTS, COMPOSITIONS, AND METHODS FOR THEIR USE” (Senhwa Biosciences, Inc., priority 2019, published 2021).
Read-outs that look alike come from different tables or passages of the source.

Assay: Pharmacokinetic studies in human, Compound I in plasma by LC/MS/MS
Assay type: in vivo
Conditions: human, plasma, iv; for AUC(0-inf): read-out: AUC∞; for half-life: read-out: T1/2 (converted)
Method: Pharmacokinetic studies and dose escalation studies were conducted in adult patients with metastatic, recurrent, locally, advanced, or unresectable solid malignancy (patients with histologically and/or cytologically confirmed solid malignancy), who received prior anti-cancer treatment(s) until disease progression, at 10 different dose levels of Compound I. Groups 1-7 were administered intravenously on days 1 and 8 of a 4-week cycle at 50, 100, 150, 200, 250, 325, and 475 mg/m^2 (lyophilized formulation), respectively. Groups 8-10 were administered intravenously on days 1,8, and 15 of a 4-week cycle at 325, 475, and 650 mg/m^2 (lyophilized formulation), respectively. Each patient received each dose over 1 hour by IV infusion on days described above.
They lyophilized formulation was reconstituted with 5% glucose in sterile water, or similar biologically acceptable fluid, for IV infusion.
For patients in Groups 1-7, blood samples were typically collected at Day 1 at pre-infusion (t=−1 h), during infusion at about 30 minutes (t=−0.5 h), immediately post infusion (t=0 h), 30 min post-infusion, 1 h post-infusion, 2 h post-infusion, 4 h post-infusion, and 6 h post-infusion, as well as at about 24 h post-infusion, 48 h post-infusion, and 72 h post-infusion. On Day 8, blood samples were typically collected at pre-infusion (t=−1 h), during infusion at about 30 minutes (t=−0.5 h), immediately post infusion (t=0 h), 30 min post-infusion, 1 h post-infusion, 2 h post-infusion, 4 h post-infusion, and 6 h post-infusion, as well as at about 24 h post-infusion, and 168 h post-infusion (Day 15).
For patients in Groups 8-10, blood samples were typically collected at Day 1 at pre-infusion (t=−1 h), during infusion at about 30 minutes (t=−0.5 h), immediately post infusion (t=0 h), 30 min post-infusion, 1 h post-infusion, 2 h post-infusion, 4 h post-infusion, and 6 h post-infusion, as well as at about 24 h post-infusion, 48 h post-infusion, and 72 h post-infusion. On Day 8, blood samples were typically collected at pre-infusion (t=−1 h). On Day 15, blood samples were typically collected at pre-infusion (t=−1 h), during infusion at about 30 minutes (t=−0.5 h), immediately post infusion (t=0 h), 30 min post-infusion, 1 h post-infusion, 2 h post-infusion, 4 h post-infusion, and 6 h post-infusion, as well as at about 24 h post-infusion, and 168 h post-infusion (Day 22).
Levels of Compound I in patient's plasma were analyzed by liquid chromatography tandem mass spectrometry (LC/MS/MS) assay. Experimental procedures of the validated methods are summarized below. The pharmacokinetic parameters after first dose and second dose for Groups 1-7 and after first dose and third dose for Groups 8-10 are shown in Tables 2A-2J. In Tables 2A-2J: SD=standard deviation; Cmax=maximum observed concentration; D=dose; Tmax=time to maximum observed concentration; T1/2=elimination half-life; Vd=volume of distribution; CL=drug clearance; and AUC∞=area under the concentration-time curve from time zero to infinity (total exposure).
The concentrations of Compound I in human plasma samples collected from subjects of as discussed above. Compound I concentrations in plasma samples were measured based on 9 levels of calibration standards from 5.00 to 5000 ng/mL, and 3 levels of QC at 15.0 ng/mL (low), 2500 ng/mL (mid), and 4000 ng/mL (high).
Two reference standard master stock solutions of Compound I were prepared by dissolving the Compound 1 reference standard with 50:50:0.1 ACN:diH2O:FA (v/v/v) and sonicating for 7 minutes (diH2O=deionized water). The resulting solutions were further diluted with 50:50:0.1 ACN:diH2O:FA (v/v/v) into a series of working stock solutions (WSS) for spiking of Compound I calibration standards and QC samples. The master stock solutions were prepared fresh on the day of assay, or stored at nominal 2° C. to 8° C. for later use. Master stock solutions were used within the stability timeframe. […]

[1] = 150 mg/m2, Group 3, 150 mg/m^2 IV, Day 8, mean, n = 4
[2] = 200 mg/m2, Group 4, 200 mg/m^2 IV, Day 1, mean, n = 4
[3] = 200 mg/m2, Group 4, 200 mg/m^2 IV, Day 8, mean, n = 4
[4] = 250 mg/m2, Group 5, 250 mg/m^2 IV, Day 1, mean, n = 3
[5] = 250 mg/m2, Group 5, 250 mg/m^2 IV, Day 8, mean, n = 3
[6] = 325 mg/m2, Group 6, 325 mg/m^2 IV, Day 1, mean, n = 3
[7] = 325 mg/m2, Group 6, 325 mg/m^2 IV, Day 8, mean, n = 3
[8] = 325 mg/m2, Group 8, 325 mg/m^2 IV, Day 1, mean, n = 3
[9] = 325 mg/m2, Group 8, 325 mg/m^2 IV, Day 1, mean, n = 4
[10] = 325 mg/m2, Group 8, 325 mg/m^2 IV, Day 15, mean, n = 4
[11] = 475 mg/m2, Group 7, 475 mg/m^2 IV, Day 1, mean, n = 3
[12] = 475 mg/m2, Group 7, 475 mg/m^2 IV, Day 8, mean, n = 3
[13] = 475 mg/m2, Group 9, 475 mg/m^2 IV, Day 1, mean, n = 5
[14] = 475 mg/m2, Group 9, 475 mg/m^2 IV, Day 15, mean, n = 4
[15] = 475 mg/m2, Group 9, 475 mg/m^2 IV, Day 15, mean, n = 5
[16] = 650 mg/m2, Group 10, 650 mg/m^2 IV, Day 1, mean, n = 5
[17] = 650 mg/m2, Group 10, 650 mg/m^2 IV, Day 15, mean, n = 5

## Cc1cnc(CNC(=O)c2c(=O)c3ccc(N4CCCN(C)CC4)nc3n3c2sc2ccccc23)cn1 [Compound I, 2-(4-Methyl-[1,4]diazepan-1-yl)-5-oxo-5H-7-thia-1,11b-diaza-benzo[c]fluorene-6-carboxylic acid (5-methyl-pyrazin-2-ylmethyl)-amide]
[1]
  Tmax: 0.646 h
  Vd: 939 L
  clearance: 203 mL/min
  AUC(0-inf): 21800 ng·h/mL
  half-life: 59.1 h
[2]
  Cmax: 8950 ng/mL
  Tmax: 0.854 h
  Vd: 1700 L
  clearance: 505 mL/min
  AUC(0-inf): 15100 ng·h/mL
  half-life: 41.9 h
[3]
  Cmax: 1180 ng/mL
  Tmax: 1.3 h
  Vd: 2050 L
  clearance: 470 mL/min
  AUC(0-inf): 16200 ng·h/mL
  half-life: 53.5 h
[4]
  Cmax: 1410 ng/mL
  Tmax: 1.19 h
  Vd: 1450 L
  clearance: 348 mL/min
  AUC(0-inf): 20900 ng·h/mL
  half-life: 47.9 h
[5]
  Cmax: 771 ng/mL
  Tmax: 1.2 h
  Vd: 2160 L
  clearance: 258 mL/min
  AUC(0-inf): 28100 ng·h/mL
  half-life: 96.9 h
[6]
  Cmax: 1070 ng/mL
  Tmax: 1.02 h
  Vd: 1930 L
  clearance: 390 mL/min
  AUC(0-inf): 23500 ng·h/mL
  half-life: 66.9 h
[7]
  Cmax: 1040 ng/mL
  Tmax: 0.672 h
  Vd: 2220 L
  clearance: 307 mL/min
  AUC(0-inf): 29000 ng·h/mL
  half-life: 86.5 h
[8]
  Vd: 2320 L
  clearance: 322 mL/min
  AUC(0-inf): 29100 ng·h/mL
  half-life: 83.4 h
[9]
  Cmax: 1140 ng/mL
  Tmax: 0.767 h
[10]
  Cmax: 21100 ng/mL
  Tmax: 0.783 h
[11]
  Cmax: 1940 ng/mL
  Tmax: 0.861 h
  Vd: 2590 L
  clearance: 418 mL/min
  AUC(0-inf): 36200 ng·h/mL
  half-life: 81.8 h
[12]
  Cmax: 1710 ng/mL
  Tmax: 0.678 h
  Vd: 2430 L
  clearance: 482 mL/min
  AUC(0-inf): 35400 ng·h/mL
  half-life: 73.8 h
[13]
  Cmax: 1750 ng/mL
  Tmax: 1.18 h
  Vd: 2320 L
  clearance: 460 mL/min
  AUC(0-inf): 36300 ng·h/mL
  half-life: 61.5 h
[14]
  Vd: 2570 L
  clearance: 532 mL/min
  AUC(0-inf): 32500 ng·h/mL
  half-life: 59 h
[15]
  Cmax: 2870 ng/mL
  Tmax: 0.737 h
[16]
  Cmax: 3080 ng/mL
  Tmax: 0.81 h
  Vd: 3700 L
  AUC(0-inf): 57500 ng·h/mL
  half-life: 122 h
[17]
  Cmax: 4170 ng/mL
  Tmax: 1.05 h
  Vd: 2620 L
  AUC(0-inf): 62200 ng·h/mL
  half-life: 93.6 h
